From patent publication US20220287970A1, “COMPOSITION FOR INHIBITING SAPONIN-INDUCED HEMOLYSIS, CONTAINING CATIONIC LIPOSOME” (priority 2020, published 2022)

Legend:
red blood cells (RBCs) [1] = assay: Hemolysis analysis: cationic liposome screening vs crude saponin and QS21 (Example 3); type: cell-based; settings: saponin alone
Procedure: 1) After freeze-drying, the liposome stored in the glass vial was hydrated with 225 μL of distilled water and then allowed to react at 60° C. for 10 minutes to thus completely dissolve the liposome.
2) The liposome, saponin, sucrose in a HEPES buffer (pH 7.4), and distilled water were placed in a 96-well plate, as shown in Tables 8 and 9 below.
3) The reaction was carried out at room temperature and 300 rpm for 30 minutes using an orbital shaker.
4) 3 mL of RBCs were suspended in 10 mL of PBS and centrifuged at room temperature and 1500 rpm for 5 minutes, after which the supernatant was removed.
5) Steps 3) and 4) were repeated three times, and thus the RBCs were washed.
6) The RBC pellet was suspended in 1 mL of PBS and diluted to 1/100, followed by cell counting.
7) The RBCs were diluted to 1.5×10^9 cells/mL using PBS and dispensed at 3×10^7 cells/20 μL/well in a 96-well plate treated with the test material of 2) above.
8) The reaction was carried out at room temperature and 300 rpm for 1 hour using an orbital shaker.
9) The 96-well plate was centrifuged at room temperature and 1500 rpm for 5 minutes.
10) 50 μL of the supernatant was transferred to a new 96-well plate, and the absorbance was then measured at 415 nm.
11) Hemolysis (%) was calculated using the following equation.
(§1) Hemolysis (%)=(OD of sample OD of 0% hemolysis)/(0D of 100% hemolysis−OD of 0% hemolysis)×100

red blood cells (RBCs) [2] = assay: Hemolysis analysis: steroidal and triterpenoid saponins (Example 5); type: cell-based; settings: saponin alone
Procedure: 1) The liposome, saponin, sucrose in a HEPES buffer (pH 7.4), and distilled water were placed in a 96-well plate, as shown in Tables 14 and 15 below.
2) The reaction was carried out at room temperature and 300 rpm for 30 minutes using an orbital shaker.
3) 3 mL of RBCs were suspended in 10 mL of PBS and centrifuged at room temperature and 1500 rpm for 5 minutes, after which the supernatant was removed.
4) Steps 2) and 3) were repeated three times, and thus the RBCs were washed.
5) The RBC pellet was suspended in 1 mL of PBS and diluted to 1/100, followed by cell counting.
6) The RBCs were diluted to 1.5×10^9 cells/mL using PBS and dispensed at 3×10^7 cells/20 μL/well in a 96-well plate treated with the test material of 2) above.
7) The reaction was carried out at room temperature and 300 rpm for 1 hour using an orbital shaker.
8) The 96-well plate was centrifuged at room temperature and 1500 rpm for 5 minutes.
9) 50 μL of the supernatant was transferred to a new 96-well plate, and the absorbance was then measured at 415 nm.
10) Hemolysis (%) was calculated using the following equation.
as §1

Row | Compound | amount of saponin at which 100% hemolysis was observed (red blood cells (RBCs) [1]) [µg] | amount of saponin at which 60% hemolysis was observed (red blood cells (RBCs) [2]) [µg] | amount of saponin at which 100% hemolysis was observed (red blood cells (RBCs) [2]) [µg]
1 | QS21 | 2.5 | – | –
2 | C[C@@H]1CC[C@@]2(OC1)O[C@H]1[C@@H](O)[C@H]3[C@@H]4CC[C@H]5C[C@@H](O[C@@H]6O[C@H](CO)[C@H](O[C@@H]7O[C@H](CO)[C@@H](O)[C@H](O[C@@H]8OC[C@@H](O)[C@H](O)[C@H]8O)[C@H]7O[C@@H]7O[C@H](CO)[C@H](O)[C@H](O[C@@H]8O[C@H](CO)[C@@H](O)[C@H](O)[C@H]8O)[C@H]7O)[C@H](O)[C@H]6O)[C@H](O)C[C@]5(C)[C@H]4CC[C@]3(C)[C@H]1[C@@H]2C [digitonin] | – | 2.5 | 10
3 | C[C@@H]1CC[C@@]2(OC1)O[C@H]1C[C@H]3[C@@H]4CC=C5C[C@@H](O[C@@H]6O[C@H](CO)[C@@H](O[C@@H]7O[C@@H](C)[C@H](O[C@@H]8O[C@@H](C)[C@H](O)[C@@H](O)[C@H]8O)[C@@H](O)[C@H]7O)[C@H](O)[C@H]6O[C@@H]6O[C@@H](C)[C@H](O)[C@@H](O)[C@H]6O)CC[C@]5(C)[C@H]4CC[C@]3(C)[C@@]1(O)[C@@H]2C [Paris VII] | – | 1.25 | 5
4 | C[C@@H]1O[C@@H](O[C@H]2[C@H](O[C@H]3CC[C@@]4(C)[C@@H](CC[C@]5(C)[C@@H]4CC=C4[C@@H]6CC(C)(C)CC[C@]6(C(=O)O)CC[C@]45C)[C@]3(C)CO)OC[C@H](O)[C@@H]2O)[C@H](O)[C@H](O)[C@H]1O [α-hederin] | – | 1.25 | 10
